In paper PMC12528448, “Resistance to CDK7 inhibitors directed by acquired mutation of a conserved residue in cancer cells” (The EMBO Journal, 2025):
Values joined by “and” are separate entries in the source; they are usually repeats but may differ in a detail not shown here. Equal values may be shown once.

Columns and labels:
[1] = test system: 22Rv1-SamR cells; test: Growth assay (SRB), Samuraciclib-resistant 22Rv1; type: cell-based, human; conditions: for % Growth: 22Rv1 SamR, 4 days, biological reps
Description: (§1) To determine the IC50 of drug treatments on growth, cells were seeded in 96-well culture plates. Two days after seeding, the cells were treated with increasing concentrations of drugs and incubated for 4 days. Cell number was determined using the SRB assay (Skehan et al, [1990]), and IC50 values were calculated using non-linear regression curve fitting in GraphPad Prism v10. For all other growth experiments, cells were seeded into 96-well plates, and appropriate drugs were added 2 days after seeding. Cells were then incubated in an IncuCyte Zoom live-cell imager, with cell confluency measured every 6 h. Cell doubling times were determined by non-linear curve fitting (exponential growth equation) in GraphPad Prism v10.

[2] = test system: MCF7-CDK7-D97N cells; test: Growth assay (SRB), MCF7 CDK7-D97N knock-in; type: cell-based, human; conditions: for IC50: MCF7-CDK7-D97N, SRB; for IC50 / % Growth: 4 days; for % Growth: MCF7 CDK7 D99N, biological reps
Description: as §1
Alt-R^TM S.p. Cas9 nuclease V3, Alt-R CRISPR-Cas9 crRNA, TracrRNA and the donor templates were obtained from Integrated DNA Technologies. […] Cells were treated with 0.7 µM of Alt-R HDR Enhancer V2 to improve HRD efficiency. Sequences of the CRISPRs in the crRNA and the donor templates are shown in the Reagents and tools table. Donor templates were designed to include non-coding substitutions to aid genome DNA PCR for identifying knock-in events and to facilitate cloning; these substitutions are noted in the Reagents and tools table.

Row | Structure (SMILES) | % Growth ([1]; Log10 Conc. (nM) 0.09) | % Growth ([1]; Log10 Conc. (nM) 0.69) | % Growth ([1]; Log10 Conc. (nM) 1.29) | % Growth ([1]; Log10 Conc. (nM) 1.89) | % Growth ([1]; Log10 Conc. (nM) 2.49) | % Growth ([1]; Log10 Conc. (nM) 3.10) | % Growth ([1]; Log10 Conc. (nM) 3.70) | % Growth ([1]; Log10 Conc. (nM) 4.30) | % Growth ([1]; Log10 Conc. (nM) -0.52) | IC50 [2] | % Growth ([2]; Log10 Conc. (nM) 0.09) | % Growth ([2]; Log10 Conc. (nM) 0.69) | % Growth ([2]; Log10 Conc. (nM) 1.29) | % Growth ([2]; Log10 Conc. (nM) 1.89) | % Growth ([2]; Log10 Conc. (nM) 2.49) | % Growth ([2]; Log10 Conc. (nM) 3.10) | % Growth ([2]; Log10 Conc. (nM) -0.52) | % Growth ([2]; Log10 Conc. (nM) -1.12) | also measured
1 | CC(C)c1cnn2c(NCc3ccccc3-n3cccn3)nc(OC3CCCNC3)nc12 (stereo not shown) [LDC4297] | 97.61% and 104.31% | 95.33% and 95.56% | 91.02% and 93.49% | 85.93% and 89.36% | 74.46% and 80.17% | 45.54% and 51.37% | 16.52% and 21.74% | -6.89% and -7.33% | 95.69% and 97.10% | 284 nM | 97.54% and 102.97% and 111.53% | 89.88% and 95.95% and 106.23% | 86.58% and 89.18% and 107.98% | 78.14% and 75.55% and 98.88% | 36.43% and 41.92% and 46.72% | 15.57% and 25.31% and 26.65% | 94.29% and 106.05% and 120.50% | – | Resistance (Fold), fold increase in IC50 of 22Rv1-SamR relative to 22Rv1 ([1]; 22Rv1-SamR vs 22Rv1): 45 fold; Resistance (Fold) ([2]; MCF7-CDK7-D97N vs MCF7 WT): 38.8 fold
2 | CC1(C)CC[C@H](Nc2ncc(C(F)(F)F)c(-c3c[nH]c4c(P(C)(C)=O)c(C#N)ccc34)n2)CN1 [SY-5609] | 94.28% and 98.03% | 91.01% and 94.67% | 84.55% and 89.75% | 83.73% and 90.98% | 88.47% and 92.95% | 68.45% and 76.13% | 36.40% and 39.48% | 6.16% and 8.88% | 92.07% and 94.10% | – | 88.22% and 97.32% and 92.10% and 108.93% | 88.11% and 85.92% and 101.83% and 99.60% | 81.14% and 79.33% and 92.68% and 97.87% | 89.93% and 77.62% and 97.65% and 101.83% | 82.25% and 82.01% and 84.62% and 85.57% | 41.10% and 27.90% and 46.54% and 47.24% | 98.29% and 101.10% and 99.90% and 99.11% | 96.96% and 102.40% and 98.33% and 102.73% | IC50 ([2]; Homo sapiens, 96 h): 1550 nM
3 | CN(C)C/C=C/C(=O)Nc1ccc(C(=O)Nc2cccc(Nc3ncc(Cl)c(-c4c[nH]c5ccccc45)n3)c2)cc1 [THZ1] | 83.75% and 87.25% | 68.41% and 67.61% | 30.25% and 41.41% | -7.69% and -2.73% | -11.43% and -7.53% | -11.82% and -8.43% | -15.22% and -10.53% | – | 93.15% and 99.90% | 68.7 nM | 97.12% and 98.47% and 91.37% | 86.82% and 92.10% and 89.13% | 76.30% and 76.07% and 72.54% | 35.33% and 47.81% and 46.77% | -1.00% and 8.40% and 7.81% | – | 99.89% and 102.56% and 100.45% | 96.07% and 101.58% and 94.36% | Sensitivity in growth assays ([1]; 22Rv1-SamR): remained sensitive; % Growth ([1]; Log10 Conc. (nM) -1.12): 93.43% and 95.60%
